From patent US20060165612A1, “Compositions for hygienic hand disinfection and disinfectant handwashing” (priority 2005, published 2006) come the findings set out here.

`CCCCC(CC)COCC(O)CO` (stereo not shown) [1-(2-ethylhexyl)glycerol ether, 1-(2-Ethylhexyl)glycerol ether] gave a solubility in water of 0.1 % by weight.
